Consider one molecule from EP0193283A1, “Thiazoloquinoline derivatives, process for their preparation and compositions containing them” (BEECHAM GROUP PLC, priority 1985, dated 1986).

In brackets after ≈: the same amount, converted by molar mass.

Format in all cases: cell-based
The test system of assay [1] is M. bovis NCTC 10131. The assay is described as follows: microbe, parasite or virus in culture. The note with it: NCTC10131.
The test system of assay [2] is M. gallisepticum S6. The assay is described as follows: In vitro antimycoplasmal MIC. The note with it: Mycoplasmoides gallisepticum, Friis' agarose medium or SP4 medium with 0.65% agarose.
The subject of assay [3] is S.dysgalactiae FRO 7A. The assay is described as follows: Antibacterial MIC on agar. The note with it: Streptococcus dysgalactiae, FRO7A.
The test system of assay [4] is M. meleagridis 17529. The assay is described as follows: In vitro antimycoplasmal MIC. The note with it: Friis' agarose medium or SP4 medium with 0.65% agarose.
Assay [5] deals with M. dispar NCTC 10125. The assay is described as follows: In vitro antimycoplasmal MIC. The note with it: Friis' agarose medium or SP4 medium with 0.65% agarose.
The subject of assay [6] is M. pneumoniae x vs 9 strains. The assay is described as follows: In vitro antimycoplasmal MIC. The note with it: Mycoplasmoides pneumoniae, XVS9STRAINS, Friis' agarose medium or SP4 medium with 0.65% agarose.
Assay [7] has as its system M. synoviae ATCC 25204. Nature of the assay: In vitro antimycoplasmal MIC. The note with it: Mycoplasmopsis synoviae, ATCC25204, Friis' agarose medium or SP4 medium with 0.65% agarose.
The subject of assay [8] is M. hyorhinis ATCC 23234. The assay is described as follows: In vitro antimycoplasmal MIC. The note with it: Mesomycoplasma hyorhinis, ATCC23234, Friis' agarose medium or SP4 medium with 0.65% agarose.
Assay [9] has as its system S.agalactiae SPAI. Nature of the assay: Antibacterial MIC on agar. The note with it: Streptococcus agalactiae.
Assay [10] has as its system M. hyosynoviae ATCC 25591. Nature of the assay: In vitro antimycoplasmal MIC. The note with it: Friis' agarose medium or SP4 medium with 0.65% agarose.
In assay [11] the test system is M. iowae B11. The assay is described as follows: In vitro antimycoplasmal MIC. The note with it: Friis' agarose medium or SP4 medium with 0.65% agarose.
For assay [12], the system named is S.aureus M12. The assay is described as follows: Antibacterial MIC on agar. The note with it: Staphylococcus aureus.
Assay [13] has as its system M. hyopneumoniae x 5 strains. Nature of the assay: In vitro antimycoplasmal MIC. The note with it: Mesomycoplasma hyopneumoniae, X5STRAINS, Friis' agarose medium or SP4 medium with 0.65% agarose.

For `CCNCC1CCN(c2cc3c(cc2F)c(=O)c(C(=O)O)c2scc(C)n23)C1` (stereo not shown) [Example 1, 8-[3-[(Ethylamino)methl]-1-pyrrolidinyl]-7-fluoro-1-methyl-5-oxo-5H-thiazolo[3,2-a]-quinoline-4-carboxylic acid], the MIC in assay [1] is 0.1 ng/mL (≈ 0.248 nM); in assay [2], 0.025 ng/mL (≈ 0.062 nM); in assay [3], 500 ng/mL (≈ 1240 nM); in assay [4], 0.025 ng/mL (≈ 0.062 nM); in assay [5] it was 0.025 ng/mL (≈ 0.062 nM); in assay [6], 0.13 ng/mL (≈ 0.322 nM). In addition, the MIC in [7] is 0.1 ng/mL (≈ 0.248 nM); in assay [8] it was 0.05 ng/mL (≈ 0.124 nM); in [9] it was 1000 ng/mL (≈ 2480 nM); in assay [10], 0.05 ng/mL (≈ 0.124 nM); in assay [11] it was 0.025 ng/mL (≈ 0.062 nM); in assay [12], 120 ng/mL (≈ 297 nM). In assay [13], this molecule registered an MIC of 0.001 ng/mL (≈ 0.00248 nM).
